Measurements: ChEMBL document CHEMBL2331421, “Amino acid derived quinazolines as Rock/PKA inhibitors” (Bioorg Med Chem Lett, 2013)

What was measured:
[1] = biological target: Serine/threonine-protein kinase MRCK alpha (Homo sapiens, UniProt Q5VT25); assay: Inhibition of MRCKalpha (unknown origin)
[2] = biological target: Mitogen-activated protein kinase 14 (Homo sapiens, UniProt Q16539); assay: Inhibition of p38alpha (unknown origin)
[3] = biological target: Mitogen-activated protein kinase 9 (Homo sapiens, UniProt P45984); assay: Inhibition of JNK2 (unknown origin)
[4] = biological target: Mitogen-activated protein kinase 10 (Homo sapiens, UniProt P53779); assay: Inhibition of JNK3 (unknown origin)
[5] = biological target: Mitogen-activated protein kinase 8 (Homo sapiens, UniProt P45983); assay: Inhibition of JNK1 (unknown origin)
CYP3A4 = CYP3A4 (Homo sapiens, UniProt P08684); assay: Inhibition of CYP3A4 (unknown origin) at 10 uM relative to control; format: ADME
CYP2C9 = CYP2C9 (Homo sapiens, UniProt P11712); assay: Inhibition of CYP2C9 (unknown origin) at 10 uM relative to control; format: ADME
CYP2D6 = CYP2D6 (Homo sapiens, UniProt P10635); assay: Inhibition of CYP2D6 (unknown origin) at 10 uM relative to control; format: ADME
CYP1A2 = biological target: T1, CYP1A2 (Homo sapiens, UniProt P05177); assay: Inhibition of CYP1A2 (unknown origin) at 10 uM relative to control; format: ADME
T1 sequence (P05177 whole entry): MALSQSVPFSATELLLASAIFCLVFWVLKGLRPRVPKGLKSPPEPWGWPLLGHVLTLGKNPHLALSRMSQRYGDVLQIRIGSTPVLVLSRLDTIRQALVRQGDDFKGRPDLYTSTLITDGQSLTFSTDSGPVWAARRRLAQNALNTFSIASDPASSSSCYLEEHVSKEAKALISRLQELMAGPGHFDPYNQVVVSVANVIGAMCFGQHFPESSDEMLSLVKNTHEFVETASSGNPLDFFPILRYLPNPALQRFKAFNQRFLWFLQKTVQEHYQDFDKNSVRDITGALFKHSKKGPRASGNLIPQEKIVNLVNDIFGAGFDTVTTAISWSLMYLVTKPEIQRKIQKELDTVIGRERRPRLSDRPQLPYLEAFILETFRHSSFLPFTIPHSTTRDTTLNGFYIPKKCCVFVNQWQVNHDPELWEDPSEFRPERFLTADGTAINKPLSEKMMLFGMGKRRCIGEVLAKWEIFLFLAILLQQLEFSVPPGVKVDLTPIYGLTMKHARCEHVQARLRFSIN

[6] = Half life in human liver microsomes; format: ADME, Microsome
[7] = Inhibition of ROCK in rat A7r5 cells assessed as inhibition of myosin light chain bisphosphorylation by Western blot analysis; format: cell-based
[8] = biological target: Rho-associated protein kinase 1 (Homo sapiens, UniProt Q13464); assay: Inhibition of ROCK1 (unknown origin)
[9] = Inhibition of PKA (unknown origin); design: species or system Homo sapiens
[10] = biological target: Rho-associated protein kinase 2 (Homo sapiens, UniProt O75116); assay: Inhibition of human recombinant 6-His-tagged ROCK2 expressed in baculovirus-infected Sf9 cells using LCB-AKRRRLSSLRA-NH2 as substrate after 25 mins by TR-FRET assay
Sequence of Rho-associated protein kinase 2 (O75116 whole entry): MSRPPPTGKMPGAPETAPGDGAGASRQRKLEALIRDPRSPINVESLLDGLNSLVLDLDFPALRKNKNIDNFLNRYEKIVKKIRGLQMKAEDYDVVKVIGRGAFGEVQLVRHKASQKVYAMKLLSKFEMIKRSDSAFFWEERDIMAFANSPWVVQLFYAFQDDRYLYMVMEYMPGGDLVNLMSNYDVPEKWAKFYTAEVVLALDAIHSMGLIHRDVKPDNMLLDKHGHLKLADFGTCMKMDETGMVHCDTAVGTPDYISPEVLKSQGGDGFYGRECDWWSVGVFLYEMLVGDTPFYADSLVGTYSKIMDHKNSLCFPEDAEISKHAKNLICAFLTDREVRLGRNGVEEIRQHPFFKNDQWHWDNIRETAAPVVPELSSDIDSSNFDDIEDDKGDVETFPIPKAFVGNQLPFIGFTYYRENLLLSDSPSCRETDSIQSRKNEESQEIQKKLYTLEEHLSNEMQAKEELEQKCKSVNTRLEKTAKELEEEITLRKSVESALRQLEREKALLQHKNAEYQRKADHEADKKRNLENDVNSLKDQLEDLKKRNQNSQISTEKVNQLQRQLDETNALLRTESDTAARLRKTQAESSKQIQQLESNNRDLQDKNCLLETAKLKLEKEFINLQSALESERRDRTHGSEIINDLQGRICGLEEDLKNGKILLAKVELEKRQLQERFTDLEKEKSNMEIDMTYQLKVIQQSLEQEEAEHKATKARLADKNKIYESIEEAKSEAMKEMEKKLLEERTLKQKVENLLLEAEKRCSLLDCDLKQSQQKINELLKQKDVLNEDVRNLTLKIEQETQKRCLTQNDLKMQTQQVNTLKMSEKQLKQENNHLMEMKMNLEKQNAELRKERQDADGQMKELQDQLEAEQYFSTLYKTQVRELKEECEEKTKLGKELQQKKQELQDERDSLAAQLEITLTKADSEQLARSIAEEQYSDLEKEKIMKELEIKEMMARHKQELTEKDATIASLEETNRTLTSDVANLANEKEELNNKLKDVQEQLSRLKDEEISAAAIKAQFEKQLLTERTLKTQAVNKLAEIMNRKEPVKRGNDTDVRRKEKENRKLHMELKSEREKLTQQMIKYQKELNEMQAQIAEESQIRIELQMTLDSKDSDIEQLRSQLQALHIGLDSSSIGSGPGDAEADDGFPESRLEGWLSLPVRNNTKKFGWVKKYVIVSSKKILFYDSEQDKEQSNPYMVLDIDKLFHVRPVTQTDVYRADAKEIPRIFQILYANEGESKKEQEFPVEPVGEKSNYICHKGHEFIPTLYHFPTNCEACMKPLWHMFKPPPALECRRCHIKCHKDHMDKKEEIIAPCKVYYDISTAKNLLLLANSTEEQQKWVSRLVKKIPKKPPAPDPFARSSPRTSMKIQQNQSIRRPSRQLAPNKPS

Sequence of Mitogen-activated protein kinase 8 (P45983 whole entry): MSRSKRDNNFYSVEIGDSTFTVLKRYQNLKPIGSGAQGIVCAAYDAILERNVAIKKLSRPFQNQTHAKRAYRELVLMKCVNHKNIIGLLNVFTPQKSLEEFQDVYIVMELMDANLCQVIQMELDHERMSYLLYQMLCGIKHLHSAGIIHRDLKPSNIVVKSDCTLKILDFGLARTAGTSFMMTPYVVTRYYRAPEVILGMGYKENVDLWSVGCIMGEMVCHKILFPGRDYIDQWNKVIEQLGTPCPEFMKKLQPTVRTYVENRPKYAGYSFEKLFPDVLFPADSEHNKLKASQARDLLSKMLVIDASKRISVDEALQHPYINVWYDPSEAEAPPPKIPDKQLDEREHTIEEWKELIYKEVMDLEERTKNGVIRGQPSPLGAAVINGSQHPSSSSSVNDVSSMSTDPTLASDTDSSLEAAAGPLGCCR
Sequence of Serine/threonine-protein kinase MRCK alpha (Q5VT25 whole entry): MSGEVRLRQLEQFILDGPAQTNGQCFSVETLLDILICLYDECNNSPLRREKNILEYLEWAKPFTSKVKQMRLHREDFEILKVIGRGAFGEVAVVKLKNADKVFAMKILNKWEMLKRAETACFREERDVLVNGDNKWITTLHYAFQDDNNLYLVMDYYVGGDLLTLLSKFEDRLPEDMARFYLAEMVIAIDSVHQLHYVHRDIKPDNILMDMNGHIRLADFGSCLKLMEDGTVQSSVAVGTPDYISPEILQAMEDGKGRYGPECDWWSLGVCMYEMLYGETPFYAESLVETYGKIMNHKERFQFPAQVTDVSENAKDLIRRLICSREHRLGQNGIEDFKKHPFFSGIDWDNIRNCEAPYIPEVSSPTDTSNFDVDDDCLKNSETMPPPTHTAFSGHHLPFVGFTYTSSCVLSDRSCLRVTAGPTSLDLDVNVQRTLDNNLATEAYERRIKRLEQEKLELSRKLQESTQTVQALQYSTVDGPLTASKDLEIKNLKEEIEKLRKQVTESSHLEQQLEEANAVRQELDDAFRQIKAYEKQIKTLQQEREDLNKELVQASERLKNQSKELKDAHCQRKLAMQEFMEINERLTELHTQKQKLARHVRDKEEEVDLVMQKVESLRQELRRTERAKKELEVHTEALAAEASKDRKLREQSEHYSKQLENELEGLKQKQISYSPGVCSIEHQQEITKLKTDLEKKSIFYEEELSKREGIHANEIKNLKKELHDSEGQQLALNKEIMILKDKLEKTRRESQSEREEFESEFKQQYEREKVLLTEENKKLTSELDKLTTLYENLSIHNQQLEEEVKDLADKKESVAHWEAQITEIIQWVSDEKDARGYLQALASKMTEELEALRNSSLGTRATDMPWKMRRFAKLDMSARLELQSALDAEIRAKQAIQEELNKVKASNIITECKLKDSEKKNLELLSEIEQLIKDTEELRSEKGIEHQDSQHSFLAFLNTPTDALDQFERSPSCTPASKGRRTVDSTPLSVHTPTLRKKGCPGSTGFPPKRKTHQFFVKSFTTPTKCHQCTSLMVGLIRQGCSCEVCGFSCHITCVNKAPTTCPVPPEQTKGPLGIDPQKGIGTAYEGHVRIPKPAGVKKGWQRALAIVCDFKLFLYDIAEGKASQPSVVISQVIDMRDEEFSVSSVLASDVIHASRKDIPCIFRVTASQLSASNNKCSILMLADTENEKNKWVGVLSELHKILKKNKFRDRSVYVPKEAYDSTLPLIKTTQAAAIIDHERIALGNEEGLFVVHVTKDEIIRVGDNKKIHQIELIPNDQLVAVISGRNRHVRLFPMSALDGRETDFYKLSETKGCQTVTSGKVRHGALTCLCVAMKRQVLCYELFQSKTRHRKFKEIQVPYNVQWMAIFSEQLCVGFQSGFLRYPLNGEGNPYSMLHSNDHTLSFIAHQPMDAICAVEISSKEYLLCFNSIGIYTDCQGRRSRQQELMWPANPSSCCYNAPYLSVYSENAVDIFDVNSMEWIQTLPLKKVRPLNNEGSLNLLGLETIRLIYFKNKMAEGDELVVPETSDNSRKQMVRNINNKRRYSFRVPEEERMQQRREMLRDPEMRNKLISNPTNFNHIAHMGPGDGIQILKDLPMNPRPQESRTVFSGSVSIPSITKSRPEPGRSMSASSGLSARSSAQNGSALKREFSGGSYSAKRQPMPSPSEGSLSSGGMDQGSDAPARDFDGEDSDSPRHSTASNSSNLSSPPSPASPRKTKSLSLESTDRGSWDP
Sequence of CYP2D6 (P10635 whole entry): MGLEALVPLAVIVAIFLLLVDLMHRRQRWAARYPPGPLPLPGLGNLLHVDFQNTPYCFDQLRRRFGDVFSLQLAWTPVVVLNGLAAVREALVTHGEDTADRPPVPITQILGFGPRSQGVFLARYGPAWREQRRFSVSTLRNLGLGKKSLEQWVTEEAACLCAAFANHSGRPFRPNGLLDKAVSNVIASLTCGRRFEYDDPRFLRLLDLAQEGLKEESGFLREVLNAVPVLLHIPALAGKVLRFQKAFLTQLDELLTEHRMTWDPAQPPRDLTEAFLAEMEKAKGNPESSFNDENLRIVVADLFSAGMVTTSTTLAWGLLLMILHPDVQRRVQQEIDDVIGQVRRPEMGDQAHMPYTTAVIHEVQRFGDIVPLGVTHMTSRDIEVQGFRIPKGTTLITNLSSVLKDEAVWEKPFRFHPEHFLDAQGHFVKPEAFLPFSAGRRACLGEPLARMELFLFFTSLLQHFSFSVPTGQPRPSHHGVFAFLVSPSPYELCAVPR
Sequence of Mitogen-activated protein kinase 10 (P53779 whole entry): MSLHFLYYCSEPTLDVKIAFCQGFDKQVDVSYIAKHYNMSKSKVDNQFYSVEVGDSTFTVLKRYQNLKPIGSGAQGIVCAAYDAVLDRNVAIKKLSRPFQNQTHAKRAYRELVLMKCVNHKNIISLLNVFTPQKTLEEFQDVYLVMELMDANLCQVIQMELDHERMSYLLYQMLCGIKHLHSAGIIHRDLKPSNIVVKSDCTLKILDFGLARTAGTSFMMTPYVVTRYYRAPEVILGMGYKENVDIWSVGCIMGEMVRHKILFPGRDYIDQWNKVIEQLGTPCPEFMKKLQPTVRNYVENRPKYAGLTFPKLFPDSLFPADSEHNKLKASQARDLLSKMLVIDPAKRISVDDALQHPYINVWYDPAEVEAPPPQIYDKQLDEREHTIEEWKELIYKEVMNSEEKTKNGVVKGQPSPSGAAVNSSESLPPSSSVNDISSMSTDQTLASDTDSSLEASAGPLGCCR
Sequence of CYP2C9 (P11712 whole entry): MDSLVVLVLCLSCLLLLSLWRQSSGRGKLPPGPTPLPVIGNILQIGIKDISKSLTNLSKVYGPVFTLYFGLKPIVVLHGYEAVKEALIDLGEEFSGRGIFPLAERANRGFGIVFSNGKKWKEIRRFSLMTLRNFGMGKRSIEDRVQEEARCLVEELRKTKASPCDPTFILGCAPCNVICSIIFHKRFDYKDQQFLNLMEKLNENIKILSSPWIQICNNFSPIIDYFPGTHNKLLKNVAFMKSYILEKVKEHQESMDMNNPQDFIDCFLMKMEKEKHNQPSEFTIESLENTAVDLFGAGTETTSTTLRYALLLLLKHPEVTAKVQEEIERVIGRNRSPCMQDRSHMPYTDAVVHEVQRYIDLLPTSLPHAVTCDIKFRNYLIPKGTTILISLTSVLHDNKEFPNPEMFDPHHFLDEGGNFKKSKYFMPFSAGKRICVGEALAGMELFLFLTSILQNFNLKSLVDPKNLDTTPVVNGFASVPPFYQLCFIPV

IC50 [1]	IC50 [2]	IC50 [3]	IC50 [4]	IC50 [5]	inhibition at 10 µM (CYP3A4)	inhibition at 10 µM (CYP2C9)	inhibition at 10 µM (CYP2D6)	inhibition at 10 µM (CYP1A2)	half-life [6]	IC50 [7]	IC50 [8]	IC50 [9]	IC50 [10]	SMILES
> 1000 nM	> 1000 nM	> 1000 nM	> 1000 nM	> 1000 nM	23%	83%	55%	10%	15 min	500 nM	< 1 nM	7 nM	< 1 nM	CN(C)CC(=O)NC(c1ccc(Cl)cc1)c1nc2ccc(-c3cn[nH]c3)cc2c(=O)[nH]1 (stereo not given)
> 1000 nM	> 1000 nM	> 1000 nM	> 1000 nM	> 1000 nM	-3%	55%	66%	0%	21 min	30 nM	13 nM	26 nM	5 nM	COc1ccc([C@@H]2CN(C)C[C@H]2c2nc3ccc(-c4cn[nH]c4)cc3c(=O)[nH]2)cc1
> 1000 nM	> 1000 nM	> 1000 nM	> 1000 nM	> 1000 nM	75%	84%	89%	18%	46 min	91 nM	15 nM		13 nM	NC(c1cccc(Cl)c1)c1nc2ccc(-c3cn[nH]c3)cc2c(=O)[nH]1 (stereo not given)
> 1000 nM	> 1000 nM	> 1000 nM	> 1000 nM	> 1000 nM	30%	34%	75%	65%	75 min	23 nM	1 nM	2 nM	< 1 nM	O=c1[nH]c([C@@H]2CNC[C@H]2c2ccc(Cl)cc2)nc2ccc(-c3cn[nH]c3)cc12
> 1000 nM	> 1000 nM	> 1000 nM	> 1000 nM	> 1000 nM	31%	38%	89%	12%	42 min	300 nM	17 nM	16 nM	9 nM	N[C@@H](Cc1ccc(F)cc1)c1nc2ccc(-c3cn[nH]c3)cc2c(=O)[nH]1
> 1000 nM	> 1000 nM	> 1000 nM	> 1000 nM	> 1000 nM	63%	10%	57%	34%	36 min	470 nM	7 nM	24 nM	7 nM	COc1cc(-c2cn[nH]c2)cc2c(=O)[nH]c([C@H](N)Cc3cccc(F)c3)nc12
> 1000 nM	> 1000 nM	> 1000 nM	> 1000 nM	> 1000 nM	19%	5%	72%	19%	35 min	312 nM	2 nM	4 nM	1 nM	O=c1[nH]c([C@@H]2CNC[C@H]2c2ccccc2)nc2ccc(-c3cn[nH]c3)cc12
> 1000 nM	> 1000 nM	> 1000 nM	> 1000 nM	> 1000 nM	42%	54%	78%	51%	47 min	300 nM		7 nM	6 nM	N[C@@H](Cc1ccc(Cl)cc1)c1nc2ccc(-c3cn[nH]c3)cc2c(=O)[nH]1
